Assay results as given in patent publication US10183039B2, “Methods for the production of collagen IV” (Vanderbilt University, priority 2013, dated 2019).
Each block holds one molecule with its values, some of them ahead of it.

Tests used:
peroxidasin = molecular target: T1, peroxidasin (Mus musculus, UniProt Q3UQ28); assay: In vitro basement membrane (uncrosslinked PFHR-9 matrix) reaction with halides and H2O2; format: biochemical; conditions: for S═N bond formation in isolated matrix: 10 mM phosphate pH 7.4, 100 mM KF, 1 mM H2O2, 1 h at 37° C.
T1 construct: Cultured murine PFHR9 cells synthesize collagen IV networks that contain sulfilimine crosslinks due to the activity of PXDN; endogenous in cells; host or cells: PFHR-9 cells (isolated matrix from KI-treated culture)
T1 sequence (Q3UQ28 24-1475): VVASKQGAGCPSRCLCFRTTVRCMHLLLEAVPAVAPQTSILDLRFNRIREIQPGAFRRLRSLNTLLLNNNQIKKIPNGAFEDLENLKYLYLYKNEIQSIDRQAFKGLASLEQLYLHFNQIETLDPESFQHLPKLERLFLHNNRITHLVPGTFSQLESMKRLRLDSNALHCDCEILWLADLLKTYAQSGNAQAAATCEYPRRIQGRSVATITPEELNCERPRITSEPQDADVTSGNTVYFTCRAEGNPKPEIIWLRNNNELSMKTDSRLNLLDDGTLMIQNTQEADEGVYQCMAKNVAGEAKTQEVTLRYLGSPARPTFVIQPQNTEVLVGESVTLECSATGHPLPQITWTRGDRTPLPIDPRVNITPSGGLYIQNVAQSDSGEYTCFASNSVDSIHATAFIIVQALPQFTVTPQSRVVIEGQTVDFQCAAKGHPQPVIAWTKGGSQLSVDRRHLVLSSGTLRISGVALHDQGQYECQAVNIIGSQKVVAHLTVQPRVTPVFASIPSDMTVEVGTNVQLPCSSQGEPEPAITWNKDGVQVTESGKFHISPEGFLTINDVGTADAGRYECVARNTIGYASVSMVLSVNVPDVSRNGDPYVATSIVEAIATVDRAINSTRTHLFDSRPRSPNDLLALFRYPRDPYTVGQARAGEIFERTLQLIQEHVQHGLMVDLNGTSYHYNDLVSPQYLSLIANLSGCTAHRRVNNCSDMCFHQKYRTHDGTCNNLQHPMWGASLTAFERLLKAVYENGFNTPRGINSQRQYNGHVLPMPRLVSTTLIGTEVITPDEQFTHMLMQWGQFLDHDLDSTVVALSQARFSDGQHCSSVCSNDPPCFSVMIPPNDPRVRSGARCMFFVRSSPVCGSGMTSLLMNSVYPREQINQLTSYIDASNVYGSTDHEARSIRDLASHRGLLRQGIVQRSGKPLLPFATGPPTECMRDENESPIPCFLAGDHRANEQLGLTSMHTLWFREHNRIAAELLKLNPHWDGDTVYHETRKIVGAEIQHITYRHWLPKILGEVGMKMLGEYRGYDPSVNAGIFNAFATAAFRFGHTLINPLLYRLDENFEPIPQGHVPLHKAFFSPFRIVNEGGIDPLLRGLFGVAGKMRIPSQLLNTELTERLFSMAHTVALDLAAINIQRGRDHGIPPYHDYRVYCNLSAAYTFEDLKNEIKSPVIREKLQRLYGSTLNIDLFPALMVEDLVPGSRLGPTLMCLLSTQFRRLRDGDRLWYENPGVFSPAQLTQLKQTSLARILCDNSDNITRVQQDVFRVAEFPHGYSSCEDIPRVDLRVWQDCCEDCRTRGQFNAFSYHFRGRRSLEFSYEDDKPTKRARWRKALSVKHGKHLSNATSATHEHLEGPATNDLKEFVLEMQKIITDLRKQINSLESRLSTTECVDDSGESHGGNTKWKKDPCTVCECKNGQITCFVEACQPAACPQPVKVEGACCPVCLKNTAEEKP
Experimental: (FIG. 8A) Matrix pellets isolated from KI-treated PFHR9 cell culture were extensively washed into 10 mM phosphate buffer (pH 7.4) supplemented with 100 mM KF to maintain ionic strength. Potassium salts of Cl— or Br— were added in indicated amounts. 1 hr reactions at 37° C. were initiated by addition of H2O2 to 1 mM and stopped by freezing at −20° C. Coomassie blue-stained gels after collagenase digestion of the samples and SDS-PAGE (FIG. 8B) Schematic of Br-Free chloride salt purification apparatus and setup. […] Reagent KCl was commercially obtained and unaltered prior to analysis. 100 mM solutions were made with 18MΩ deionized water. (FIG. 8C) Coomassie blue stained gel of collagenase digested PFHR-9 matrix reaction assay. Reaction buffered contained 10 mM phosphate buffer (pH 7.4), 100 mM Br-Free or Commercially obtained reagent grade KCl, as well as 1 mM H2O2 and 200 μM PHG where appropriate. (FIG. 8D) SDS-PAGE and coomassie blue stain of hPXDN (27.25 nM) and NC1 domain (1.3 μM) reaction and subsequent densiometric quantitation of S═N bond formation stiochiometry in response to NaBr addition. hPXDN and PFHR-9 NC1 domain were prepared and purified as described (5), except with all buffers for all purification steps (dialysis, chromatography, gradient ultracentrifugation) made with Br-Free chloride salts. Reactions were run for 10 minutes at 37° C. with 10 μM H2O2 as the terminal oxidant. Dose-response curve run in the presence of 1× Br-Free PBS. Reactions were quenched with 0.2 mg/ml Catalase, 20 mM Methionine, and 1 mM PHG. EC50 value±95% C.I. from two independent experiments with each data point plotted and fit.
Uncrosslinked PFHR9 matrix was extensively washed into 10 mM phosphate buffer (pH 7.4) that was supplemented with 100 mM KF to maintain ionic strength. One hour reactions at 37° C. were initiated by addition of H2O2 to 1 mM and stopped by freezing at −20° C. […] Samples were digested with collagenase at 37° C. overnight and visualized by SDS-PAGE using 12% gels under non-reducing conditions with Coomassie staining.
PFHR-9 cells treated with potassium iodide (1-10 mM) to eliminate NC1 hexamer crosslinks were used for basement membrane isolation. To test halide dependency, the inventors established halide-free conditions by washing extensively (at least five times) with 10 mM sodium phosphate pH 7.4. To try to extract or inactivate endogenous basement membrane peroxidase activity, the inventors extracted the matrix preparation twice with 2M guanidine-Cl, 50 mM Tris-Cl pH 7.5 and 10 mM EDTA-Na pH 8 followed by extensive washing with 1×PBS. Basement membrane was resuspended in the desired buffer with or without cofactors and inhibitors to examine in vitro NC1 crosslinking under various conditions. Basement membranes were collagenase solubilized to delineate collagen IV NC1 sulfilimine crosslink formation with SDS-PAGE and Coomassie blue staining membrane was isolated, washed extensively and resuspended in 1×PBS. Azide (0-10 mM) and 1 mM H2O2 were added and allowed to react for 1 h at 37° C. The matrix was pelleted, washed extensively with 1×PBS and solubilized with 1×PBS plus 2% (w/v) SDS. Solubilized proteins were reacted with 100 μM Tris[(1-benzyl-1H-1,2,3-triazol-4-yl)methyl]amine (Anaspec), 1 mM Tris(2-carboxyethyl)phosphine hydrochloride (ThermoFisher Pierce), 1 mM cupric sulfate and 100 μM biotin alkyne (PEG4 carboxamide-propargyl biotin; Life Technologies) for 1 h at 37° C. Click chemistry reactions were quenched with 1 mM 3′-azido-3′-deoxythymidine (Sigma). For avidin-HRP detection, samples were electrophoresed under reducing conditions, transferred to nitrocellulose membranes and probed with streptavidin-HRP according to manufacturer instructions (ThermoFisher Pierce). To isolate biotinylated proteins, the inventors precipitated click reaction products with two volumes of cold acetone to remove reactants, washed them with 70% (v/v) acetone and then resolubilized them in 1×PBS plus 2% SDS.

collagen IV NC1 hexamer = molecular target: T2, collagen IV NC1 hexamer (Mus musculus, UniProt P02463+P08122); assay: Hypohalous acid oxidation of purified uncrosslinked NC1 hexamer; conditions: for effect of pretreatment on S═N bond formation by HOBr: NC1 hexamer pretreated with the substance, then treated with HOBr; for crosslinked dimeric subunits (percentage of dimeric subunit): 500 nM NC1 hexamer, 5 μM hypohalous acid, 30 min at 37° C. (FIG. 4A)
T2 sequence (P02463 1445-1669 limits assumed): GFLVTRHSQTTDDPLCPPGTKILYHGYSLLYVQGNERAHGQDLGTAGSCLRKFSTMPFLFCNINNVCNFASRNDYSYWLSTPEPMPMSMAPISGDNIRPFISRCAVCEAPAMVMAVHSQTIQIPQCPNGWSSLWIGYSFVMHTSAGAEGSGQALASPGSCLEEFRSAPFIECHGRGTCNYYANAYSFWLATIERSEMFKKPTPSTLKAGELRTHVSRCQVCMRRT
T2 sequence (P08122 1484-1707 limits assumed): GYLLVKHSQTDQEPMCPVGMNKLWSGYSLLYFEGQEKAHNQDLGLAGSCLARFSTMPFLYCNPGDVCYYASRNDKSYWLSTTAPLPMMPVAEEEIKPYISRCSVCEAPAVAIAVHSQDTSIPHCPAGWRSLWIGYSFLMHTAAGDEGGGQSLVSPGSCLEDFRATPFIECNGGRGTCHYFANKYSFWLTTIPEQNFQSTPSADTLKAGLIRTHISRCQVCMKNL

PFHR-9 cells = assay: Collagen IV sulfilimine crosslink formation in PFHR-9 cell culture (NC1 hexamer, SDS-PAGE); format: cell-based, mouse; conditions: for effect on NC1 dimer / crosslink formation in culture: PFHR9 matrix grown 5-8 days with potassium halide salts, SDS-PAGE; for IC50: halide/pseudohalide screen in cell culture, read-out: IC50, inhibition of S═N formation
[1] = matrix grown 5-8 days with potassium salts, 95% CI

Compound: [Cl-].[K+] [Br-free KCl, KCl]
dimer formation with bromide-free chloride as halide source (peroxidasin; 100 mM Br-free chloride salt, 1 mM H2O2, isolated PFHR-9 matrix): did not support dimer formation to levels comparable with untreated controls

Compound: [F-].[K+] [Fluoride, potassium fluoride]
S═N bond formation in isolated matrix (peroxidasin): inert

sulfilimine bond formation in isolated basement membrane (peroxidasin; inhibitor removed, with versus without H2O2 (FIG. 2C)): Sulfilimine bonds formed rapidly
Compound: OO [H2O2, hydrogen peroxide]
effect of pretreatment on S═N bond formation by HOBr (collagen IV NC1 hexamer): dose-dependent decrease in the crosslinking efficacy of HOBr

crosslinked dimeric subunits (percentage of dimeric subunit) (collagen IV NC1 hexamer): increased significantly
crosslinked dimeric subunits (percentage of dimeric subunit) (collagen IV NC1 hexamer; listed as hypochlorous acid): yielded crosslinked dimeric subunits
concentration required to drive S═N bond formation (collagen IV NC1 hexamer; 5 μM NC1 hexamer, 5 minutes at 37° (FIG. 9A)): 50 µM
S═N bond formation as share of total Met93 oxidized (collagen IV NC1 hexamer; oxidation event 1 (OE1), S—Cl or S—Br halosulfonium intermediate): 19%
Compound: OCl [HOCl, hypochlorous acid]
effect of pretreatment on S═N bond formation by HOBr (collagen IV NC1 hexamer): decreased with pretreatment of increasing levels of HOCl

Compound: [Br-].[K+] [KBr, potassium bromide]
effect on NC1 dimer / crosslink formation in culture (PFHR-9 cells): dimer enhancement
EC50 (PFHR-9 cells; halide screen in cell culture, matrix grown 5-8 days with potassium salts, 95% CI, read-out: EC50, enhancement of S═N formation): 75 µM

Compound: N#C[S-].[K+] [KSCN, potassium thiocyanate]
effect on NC1 dimer / crosslink formation in culture (PFHR-9 cells): dimer inhibition
effect on NC1 dimer / crosslink formation in culture (PFHR-9 cells; listed as SCN^−): potent inhibitor of peroxidasin-mediated crosslink formation
IC50 (PFHR-9 cells; [1]): 17 µM

Compound: [I-].[K+] [potassium iodide]
effect on NC1 dimer / crosslink formation in culture (PFHR-9 cells): dimer inhibition
IC50 (PFHR-9 cells; [1]): 84 µM
formation of collagen IV crosslinks (PFHR-9 cells; inhibitor present during cellular deposition of basement membrane, FIG. 2A: PHG 50 μM, MMI 1 mM, KI 10 mM, 3-AT 10 mM, BAPN 500 μM, putrescine 2.5 mM): inhibited collagen IV crosslink formation
S═N bond formation in isolated matrix (peroxidasin): demonstrated no S═N formation
S═N bond formation in isolated matrix (peroxidasin; listed as KI): did not faciliate crosslinking
